Data reported in the supplement of paper PMC10307832.

Key:
Assay in all cases: relative viability (nuclei count vs DMSO), 5 days (fraction); higher = more cells survive
VE-821 + Foretinib = compound: CS(=O)(=O)c1ccc(-c2cnc(N)c(C(=O)Nc3ccccc3)n2)cc1 [VE-821] + COc1cc2c(Oc3ccc(NC(=O)C4(C(=O)Nc5ccc(F)cc5)CC4)cc3F)ccnc2cc1OCCCN1CCOCC1 [Foretinib] (partner 0.25 µM)
Method in brief: (§1)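 After 5 days of treatment, lung cancer cells in 1536-well plates were fixed and stained in a single step (final 0.05% Triton X-100, 1% formaldehyde, 1 ug/ml Hoechst) and their nuclei counted on 4× images. Treatment had been applied by pin tool the day after seeding as one drug alone or as a fixed anchor-drug dose with five library-drug doses (not always all listed) in √10 steps. Relative viability is the nuclei count of treated wells divided by that of vehicle wells, and values are medians of duplicate plates.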

Ruxolitinib + Bortezomib = compound: N#CC[C@H](C1CCCC1)n1cc(-c2ncnc3[nH]ccc23)cn1 [Ruxolitinib] + CC(C)C[C@H](NC(=O)[C@H](Cc1ccccc1)NC(=O)c1cnccn1)B(O)O [Bortezomib] (partner 0.002 µM)
Method in brief: as §1

Vismodegib + Foretinib = compound: CS(=O)(=O)c1ccc(C(=O)Nc2ccc(Cl)c(-c3ccccn3)c2)c(Cl)c1 [Vismodegib] + COc1cc2c(Oc3ccc(NC(=O)C4(C(=O)Nc5ccc(F)cc5)CC4)cc3F)ccnc2cc1OCCCN1CCOCC1 [Foretinib] (partner 0.25 µM)
Method in brief: as §1

Ruxolitinib + Luminespib = compound: N#CC[C@H](C1CCCC1)n1cc(-c2ncnc3[nH]ccc23)cn1 [Ruxolitinib] + CCNC(=O)c1noc(-c2cc(C(C)C)c(O)cc2O)c1-c1ccc(CN2CCOCC2)cc1 [Luminespib] (partner 0.01 µM)
Method in brief: as §1

| Cell Line | relative viability (VE-821 + Foretinib; first compound 0.08 µM) | relative viability (VE-821 + Foretinib; first compound 0.253 µM) | relative viability (VE-821 + Foretinib; first compound 0.8 µM) | relative viability (VE-821 + Foretinib; first compound 2.53 µM) | relative viability (VE-821 + Foretinib; first compound 8 µM) | relative viability (Ruxolitinib + Bortezomib; first compound 0.08 µM) | relative viability (Ruxolitinib + Bortezomib; first compound 0.253 µM) | relative viability (Ruxolitinib + Bortezomib; first compound 0.8 µM) | relative viability (Ruxolitinib + Bortezomib; first compound 2.53 µM) | relative viability (Ruxolitinib + Bortezomib; first compound 8 µM) | relative viability (Vismodegib + Foretinib; first compound 0.08 µM) | relative viability (Vismodegib + Foretinib; first compound 0.253 µM) | relative viability (Vismodegib + Foretinib; first compound 0.8 µM) | relative viability (Vismodegib + Foretinib; first compound 2.53 µM) | relative viability (Vismodegib + Foretinib; first compound 8 µM) | relative viability (Ruxolitinib + Luminespib; first compound 0.08 µM) | relative viability (Ruxolitinib + Luminespib; first compound 0.253 µM) | relative viability (Ruxolitinib + Luminespib; first compound 0.8 µM) | relative viability (Ruxolitinib + Luminespib; first compound 2.53 µM) | relative viability (Ruxolitinib + Luminespib; first compound 8 µM) |
| --- | --- | --- | --- | --- | --- | --- | --- | --- | --- | --- | --- | --- | --- | --- | --- | --- | --- | --- | --- | --- |
| NCI-H1666 | 0.97 | 1.02 | 1.04 | 1.03 | 0.783 | 0.685 | 0.833 | 0.861 | 0.781 | 0.96 | 1.01 | 0.935 | 1.05 | 0.925 | 0.936 | 1 | 1.1 | 1.05 | 1.01 | 0.972 |
| EPLC-272H | 0.803 | 0.747 | 0.804 | 0.692 | 0.341 | 0.846 | 0.976 | 0.984 | 0.937 | 0.734 | 0.787 | 0.727 | 0.68 | 0.785 | 0.776 | 0.632 | 0.224 | 0.241 | 0.295 | 0.174 |
| NCI-H838 | 1.21 | 0.946 | 0.892 | 1.13 | 0.877 | 0.875 | 0.652 | 0.887 | 0.398 | 0.342 | 0.987 | 0.979 | 0.997 | 1.06 | 1.03 | 0.218 | 0.233 | 0.316 | 0.239 | 0.221 |
| NCI-H2087 | 1.12 | 0.982 | 1.22 | 1.33 | 1 | 0.849 | 0.853 | 0.985 | 0.821 | 0.701 | 1.09 | 1.1 | 0.985 | 1.13 | 0.938 | 0.158 | 0.15 | 0.172 | 0.233 | 0.17 |
| LC-2-ad | 1.04 | 1.05 | 1.03 | 1.17 | 1.03 | 1.04 | 0.861 | 1.22 | 0.98 | 0.609 | 0.924 | 0.848 | 0.893 | 0.847 | 1.02 | – | 1 | 1 | 0.693 | 0.688 |
| NCI-H2405 | 1.09 | 1.06 | 0.993 | 1.09 | 1.12 | 1.02 | 0.968 | 0.923 | 0.99 | 0.23 | 1.05 | 1.04 | 0.995 | 1.01 | 1.08 | – | 0.654 | 0.838 | 0.481 | 0.476 |
| HCC-366 | 0.942 | 0.922 | 0.815 | 0.271 | 0.153 | 1.03 | 0.987 | 1.16 | 1.01 | 0.845 | 0.893 | 0.925 | 0.877 | 0.956 | 0.864 | – | – | – | – | – |
| NCI-H3122 | 0.977 | 0.995 | 0.959 | 0.986 | 0.925 | 1.02 | 0.986 | 0.92 | 0.926 | 0.873 | 0.994 | 0.938 | 0.849 | 0.858 | 1.02 | 0.13 | 0.108 | 0.0859 | 0.0958 | 0.113 |
| LU99A | 0.903 | 0.763 | 0.802 | 0.851 | 0.462 | 1.27 | 1.05 | 1.21 | 1.15 | 0.842 | 0.866 | 0.775 | 0.751 | 0.725 | 0.79 | 0.224 | 0.265 | 0.353 | 0.23 | 0.23 |
| NCI-H1650 | 1.15 | 1.11 | 0.718 | 1.39 | 0.692 | – | 0.185 | 0.188 | 0.18 | 0.195 | 1.08 | 0.938 | 1.13 | 1.07 | 1.21 | – | 0.196 | 0.198 | 0.214 | 0.197 |
| EMC-BAC-2 | 1.05 | 0.944 | 0.856 | 1.05 | 0.949 | 1.12 | 1.06 | 1.15 | 1.06 | 0.811 | 0.977 | 0.965 | 0.95 | 1 | 1.04 | 1.09 | 1.16 | 1.15 | 1.04 | 0.947 |
| HCC-78 | 0.577 | 0.524 | 0.539 | 0.628 | 0.569 | 0.379 | 0.365 | 0.441 | 0.354 | 0.391 | 0.515 | 0.538 | 0.511 | 0.593 | 0.532 | – | – | – | – | – |
| NCI-H1734 | 0.972 | 0.854 | 0.805 | 1.02 | 0.722 | 0.928 | 0.924 | 0.983 | 0.74 | 0.835 | 0.875 | 0.869 | 0.876 | 0.772 | 0.946 | 0.167 | 0.197 | 0.198 | 0.162 | 0.185 |
| COR-L23 | 1.09 | 0.974 | 0.915 | 1.27 | 0.917 | 1.16 | 1.03 | 1.06 | 0.9 | 0.758 | 0.957 | 0.929 | 0.891 | 0.973 | 1.06 | 0.749 | 0.738 | 0.676 | 0.511 | 0.519 |
| RERF-LC-KJ | 0.861 | 0.868 | 0.793 | 0.767 | 0.698 | 1.09 | 1.11 | 1.2 | 1 | 0.986 | 0.826 | 0.848 | 0.852 | 0.85 | 0.821 | 1.21 | 1.31 | 1.4 | 1.21 | 0.919 |
| NCI-H1437 | 1.3 | 1.25 | 1.16 | 1.34 | 1.24 | 0.634 | 0.519 | 0.586 | 0.413 | 0.464 | 1.23 | 1.22 | 1.25 | 1.21 | 1.26 | 1.16 | 1.26 | 1.2 | 1.13 | 0.908 |
| NCI-H1915 | 1.15 | 1.08 | 1.03 | 1.09 | 0.912 | 0.956 | 0.955 | 0.91 | 0.961 | 0.905 | 1.02 | 1.06 | 1.05 | 1.05 | 1.08 | 0.711 | 0.762 | 0.83 | 0.578 | 0.503 |
